Assay results from ChEMBL document CHEMBL4406906, “Discovery of potent and selective butyrylcholinesterase inhibitors through the use of pharmacophore-based screening” (Bioorg Med Chem Lett, 2019).
Activity calls are given as the source filed them. The rule behind the calls is not given here. Where a SMILES comes first, the peptide text is derived from it. The star is where a group is joined. Boc = CC(C)(C)OC(=O)*

The molecules below were run against T1, Cholinesterase (Homo sapiens, UniProt P06276) (assay: Inhibition of BChE (unknown origin) at 5 uM incubated for 10 mins by Ellman's method relative to control).
T1 sequence (P06276 whole entry): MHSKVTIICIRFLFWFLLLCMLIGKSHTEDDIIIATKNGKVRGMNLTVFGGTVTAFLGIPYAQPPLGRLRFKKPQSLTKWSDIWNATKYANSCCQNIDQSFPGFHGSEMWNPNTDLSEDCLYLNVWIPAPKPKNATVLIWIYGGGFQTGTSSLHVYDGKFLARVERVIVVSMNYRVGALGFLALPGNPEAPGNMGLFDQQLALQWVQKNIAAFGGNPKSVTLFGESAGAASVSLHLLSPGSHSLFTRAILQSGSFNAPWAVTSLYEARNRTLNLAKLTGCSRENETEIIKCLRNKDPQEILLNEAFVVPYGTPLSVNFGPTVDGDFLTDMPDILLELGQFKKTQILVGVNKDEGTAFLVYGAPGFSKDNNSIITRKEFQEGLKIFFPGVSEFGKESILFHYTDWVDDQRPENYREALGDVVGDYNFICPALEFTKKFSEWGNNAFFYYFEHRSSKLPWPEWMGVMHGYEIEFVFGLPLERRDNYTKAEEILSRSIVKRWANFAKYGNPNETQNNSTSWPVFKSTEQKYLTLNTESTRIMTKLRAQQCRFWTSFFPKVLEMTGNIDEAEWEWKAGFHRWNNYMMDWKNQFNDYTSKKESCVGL

| SMILES | inhibition |
| --- | --- |
| Cc1cc(S(=O)(=O)NC2=Nc3cccc4cccc(c34)N2)c(S)cc1Cl | 50.3% |
| Cc1ccc(S(=O)(=O)OCC2CCc3[nH]c4ccccc4c3C2)cc1 (stereo not drawn) | 73.1% |
| Cn1c(=O)c2[nH]c(CCCc3nc4c(c(=O)n(C)c(=O)n4C)n3C)nc2n(C)c1=O | 25.3% |
| Cc1[nH]c2ccccc2c1C(=O)CC1(O)C(=O)Nc2c(Cl)cc(Cl)cc21 (stereo not drawn) | 47.5% |
| COC(=O)C(Cc1c[nH]c2ccccc12)NC(=O)C(Cc1c[nH]c2ccccc12)NC(=O)C(Cc1c[nH]c2ccccc12)NC(=O)C(Cc1c[nH]c2ccccc12)NC(=O)C(Cc1c[nH]c2ccccc12)NC(=O)C(Cc1c[nH]c2ccccc12)NC(=O)OC(C)(C)C (stereo not drawn) (Boc-WWWWWW-OMe; configuration not given here) | 46% |
| Cn1c(=O)c2[nH]c(CCc3nc4c([nH]3)c(=O)n(C)c(=O)n4C)nc2n(C)c1=O | 17.9% |
| Cc1cc(S(=O)(=O)N=c2[nH]c3ccccc3[nH]2)c(SCc2ccccc2)cc1Cl | 65.7% |
| CCC(C)C(NC(=O)C(CC(C)C)NC(=O)C(N)Cc1c[nH]c2ccccc12)C(=O)NC(Cc1c[nH]c2ccccc12)C(=O)O (stereo not drawn) (H-WLIW-OH; configuration not given here) | 38.9% |
| Fc1ccc2[nH]c3c(c2c1)C[PH](Cc1cccc2ccccc12)(c1ccccc1)CC3 | 97.5% |
| Cc1ccc2nc(CN(CCN(Cc3nc4ccc(C)cc4[nH]3)Cc3nc4ccc(C)cc4[nH]3)Cc3nc4ccc(C)cc4[nH]3)[nH]c2c1 | 41.7% |
| O=c1[nH]c2cc(Cl)ccc2n1C1CCN(CCCC(c2ccc(F)cc2)c2ccc(F)cc2)CC1 | 43.2% |
| COC(=O)C(Cc1c[nH]c2ccccc12)NC(=O)C(Cc1c[nH]c2ccccc12)NC(=O)OCc1ccccc1 (stereo not drawn) | 92.9% |
| N#CC(C(=O)CCc1nc2ccccc2[nH]1)c1c(Cl)cccc1Cl (stereo not drawn) | 32.7% |
| Cn1c(=O)c2[nH]c(CCCc3nc4c([nH]3)c(=O)n(C)c(=O)n4C)nc2n(C)c1=O | 19.1% |
| Cn1c(=O)c2[nH]c(C(O)C(O)c3nc4c([nH]3)c(=O)n(C)c(=O)n4C)nc2n(C)c1=O (stereo not drawn) | 25% |
| COC(=O)[C@H](Cc1c[nH]c2ccccc12)NC(=O)[C@H](Cc1c[nH]c2ccccc12)NC(=O)[C@H](Cc1c[nH]c2ccccc12)NC(=O)OC(C)(C)C (Boc-Trp-Trp-Trp-OMe) | 79.9% |
| CN(C)c1ccc(C=CC(=O)c2nc3ccccc3[nH]2)cc1 | 43.2% |
| Cc1nc(C(N)=S)sc1C(=O)CC(=O)C(=O)Nc1nc2ccccc2[nH]1 | 43.5% |
| Cc1cc2nc(C(O)C(O)C(O)C(O)c3nc4cc(C)c(C)cc4[nH]3)[nH]c2cc1C (stereo not drawn) | 4% |
| Cn1c(=O)c2nc(CS(=O)(=O)Cc3nc4c(=O)n(C)c(=O)n(C)c4[nH]3)[nH]c2n(C)c1=O | 8% |

| SMILES | inhibition |
| --- | --- |
| c1ccc2[nH]c(SCCSc3nc4ccccc4[nH]3)nc2c1 | 81.2% |
| O=C(Nc1ccccc1)c1cc(S(=O)(=O)Nc2nc3cccnc3[nH]2)c(SSc2cc(Cl)c(C(=O)Nc3ccccc3)cc2S(=O)(=O)Nc2nc3cccnc3[nH]2)cc1Cl | 9.9% |
| O=c1[nH]nc(Cc2ccc(Cl)cc2)n1N=Cc1c[nH]c2ccccc12 | 20.7% |
| Cn1c(=O)c2nc(COCc3nc4c(=O)n(C)c(=O)n(C)c4[nH]3)[nH]c2n(C)c1=O | 26.5% |
| Cc1ccc(S(=O)(=O)C(C#N)(Cc2c[nH]c3ccccc23)Cc2c[nH]c3ccccc23)cc1 | 48.5% |
| c1ccc2[nH]c(CN(CCN(Cc3nc4ccccc4[nH]3)Cc3nc4ccccc4[nH]3)Cc3nc4ccccc4[nH]3)nc2c1 | 92% |
| Cc1cc(S(=O)(=O)N=c2[nH]c3cccc(C)c3[nH]2)c(SCc2ccccc2)cc1Cl | 55.6% |
| CCn1c(CCCc2nc3c(=O)n(C)c(=O)n(C)c3[nH]2)nc2c1c(=O)n(C)c(=O)n2C | 15.4% |
| Cc1c(C(=O)CSc2nc3ccccc3[nH]2)c(=O)n(-c2ccccc2)n1C | 62.7% |
| Oc1ccc2[nH]c3c(c2c1)C[PH](Cc1cccc2ccccc12)(c1ccccc1)CC3 | 99.7% |
| COc1ccc(OC)c2[nH]c(CCc3nc4c(OC)ccc(OC)c4[nH]3)nc12 | 16.7% |
| Cn1c(=O)c2nc(CCCCc3nc4ccccc4[nH]3)[nH]c2n(C)c1=O | 25.6% |
| Cc1ccc2[nH]/c(=N/S(=O)(=O)c3cc(C)c(Cl)cc3S)[nH]c2c1 | 50.9% |
| Cc1cc(S(=O)(=O)Nc2nc3ccccc3[nH]2)c(S)cc1Cl | 48.5% |
| c1ccc2c(CN3CCN(Cc4c[nH]c5ccccc45)CC3)c[nH]c2c1 | 76.5% |
| Cc1[nH]c2ccccc2c1C1=CC(c2c(C)[nH]c3ccccc23)CCC1 (stereo not drawn) | 75% |
| Cc1cc(CSCCc2nc3ccccc3[nH]2)c(O)c(CSCCc2nc3ccccc3[nH]2)c1 | 101% |
| COC(=O)C(Cc1c[nH]c2ccccc12)NC(=O)C(Cc1c[nH]c2ccccc12)NC(=O)C(Cc1c[nH]c2ccccc12)NC(=O)C(Cc1c[nH]c2ccccc12)NC(=O)OC(C)(C)C (stereo not drawn) (Boc-WWWW-OMe; configuration not given here) | 51.2% |
| O=S(=O)(Cc1nc2ccccc2[nH]1)Cc1nc2ccccc2[nH]1 | 62% |

The molecules below were run against T1, Cholinesterase.
Description: Inhibition of BChE (unknown origin) incubated for 10 mins by Ellman's method

| SMILES | IC50 |
| --- | --- |
| c1ccc2[nH]c(SCCSc3nc4ccccc4[nH]3)nc2c1 | 3030 nM |
| CCN(CC)C(C)CN1c2ccccc2Sc2ccccc21 (stereo not drawn) [ETHOPROPAZINE] | 210 nM |
| c1ccc2[nH]c(CN(CCN(Cc3nc4ccccc4[nH]3)Cc3nc4ccccc4[nH]3)Cc3nc4ccccc4[nH]3)nc2c1 | 1360 nM |
| c1ccc2c(CN3CCN(Cc4c[nH]c5ccccc45)CC3)c[nH]c2c1 | 987 nM |
| Cc1cc(CSCCc2nc3ccccc3[nH]2)c(O)c(CSCCc2nc3ccccc3[nH]2)c1 | 32 nM |

Each molecule was assayed against Acetylcholinesterase (Homo sapiens) (UniProt P22303) (assay: Inhibition of AChE (unknown origin) at 5000 nM by Ellman's method).
Chain of Acetylcholinesterase (Homo sapiens) (P22303 whole entry): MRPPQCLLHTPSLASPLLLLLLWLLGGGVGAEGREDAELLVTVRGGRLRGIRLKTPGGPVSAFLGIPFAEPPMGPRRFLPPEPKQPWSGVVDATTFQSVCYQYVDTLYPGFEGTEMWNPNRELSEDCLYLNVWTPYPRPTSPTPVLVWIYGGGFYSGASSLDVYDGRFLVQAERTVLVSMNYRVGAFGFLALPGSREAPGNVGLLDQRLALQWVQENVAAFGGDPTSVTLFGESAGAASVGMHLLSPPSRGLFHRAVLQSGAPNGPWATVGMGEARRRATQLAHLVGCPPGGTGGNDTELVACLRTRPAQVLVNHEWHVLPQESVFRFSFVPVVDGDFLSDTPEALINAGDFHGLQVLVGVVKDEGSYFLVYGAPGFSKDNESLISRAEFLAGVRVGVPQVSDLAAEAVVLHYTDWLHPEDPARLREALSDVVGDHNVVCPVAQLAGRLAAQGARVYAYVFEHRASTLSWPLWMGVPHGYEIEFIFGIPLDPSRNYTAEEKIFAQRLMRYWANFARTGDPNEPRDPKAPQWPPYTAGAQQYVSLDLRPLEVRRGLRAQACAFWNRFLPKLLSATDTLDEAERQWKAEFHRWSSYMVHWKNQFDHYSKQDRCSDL

| SMILES | inhibition |
| --- | --- |
| c1ccc2[nH]c(SCCSc3nc4ccccc4[nH]3)nc2c1 | inactive |
| c1ccc2[nH]c(CN(CCN(Cc3nc4ccccc4[nH]3)Cc3nc4ccccc4[nH]3)Cc3nc4ccccc4[nH]3)nc2c1 | inactive |
| c1ccc2c(CN3CCN(Cc4c[nH]c5ccccc45)CC3)c[nH]c2c1 | inactive |
| Cc1cc(CSCCc2nc3ccccc3[nH]2)c(O)c(CSCCc2nc3ccccc3[nH]2)c1 | inactive |
